In brackets after ≈: the same amount, converted by molar mass. Activity calls are given as the source filed them. No cut-off for these calls is given here.
Legend:
[1] = tested on: P388; assay: Cytotoxicity against mouse P388 cells; assay type: functional, cell-based
[2] = tested on: P388; assay: In vivo cytotoxicity against mouse P388 cells; assay type: functional, organism-based
[3] = Cytotoxicity against mouse B16-F1 cells; assay type: functional, cell-based

SMILES	IC50 [1]	Activity [2]	IC50 [3]
CCCC(CC)CC(C)Cc1cc(CC)c(CC(=O)O)o1 (stereo not drawn) [GLNVILLIC ACID B]	> 20 mg/L		
COC(=O)C[C@@H]1OO[C@@](C)(/C(C)=C/C=C/Cc2ccccc2)C[C@H]1C [METHYL CAPUCINOATE A]		inactive	12 mg/L (≈ 34.8 µM)
CC/C=C/C(CC)CC(C)CC1(CC)C=C(CC)C(C(=O)O)OO1 (stereo not drawn)	0.055 mg/L (≈ 0.162 µM)	inactive	
CC/C=C/C(CC)CC(C)Cc1cc(CC)c(CC(=O)O)o1 (stereo not drawn) [GLANVILLIC ACID A]	> 20 mg/L		
COC(=O)C[C@@H]1OO[C@@](C)(/C(C)=C/C(C)=C/Cc2ccccc2)C[C@H]1C		inactive	12 mg/L (≈ 33.5 µM)

Reference: ChEMBL document CHEMBL1150562, “Glánvillic acids A and B and methyl capucinoate A, new metabolites isolated from the Caribbean sponges Plakortis halichondrioides and Plakinastrella onkodes” (J Nat Prod, 2001)
